Data as given in patent US20090047244A1, “MACROCYCLIC SERINE PROTEASE INHIBITORS I” (Idenix Pharmaceuticals, Inc., priority 2007, published 2009).

What was measured:
[1] = Cytotoxicity evaluation (Cell Titer 96 AQueous One Solution Cell Proliferation Assay); type: cell-based; conditions: human; GS4.1 cells, cellular viability
Experimental: For cytotoxicity evaluation, GS4.1 cells were treated with compounds as described above and cellular viability was monitored using the Cell Titer 96 AQueous One Solution Cell Proliferation Assay (Promega). CC50 values were determined from the % cytotoxicity versus concentration data with Tecan Magellan software as described above.

HCV NS3-NS4A protease = target: T1, HCV NS3-NS4A protease (Hepatitis C virus genotype 1a, UniProt P27958); experiment: HCV Protease Assay (SensoLyte 620 HCV Protease Assay kit); type: biochemical; conditions: 1.2 nM HCV NS3-NS4A protease, 5% DMSO, 60 min at room temperature
T1 construct: made in house
T1 sequence (P27958 1027-1208): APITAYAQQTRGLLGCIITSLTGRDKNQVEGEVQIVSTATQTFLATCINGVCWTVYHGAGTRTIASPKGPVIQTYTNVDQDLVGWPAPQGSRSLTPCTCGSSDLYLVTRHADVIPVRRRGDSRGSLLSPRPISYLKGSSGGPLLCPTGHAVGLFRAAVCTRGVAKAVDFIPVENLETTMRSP
Experimental: General procedure: Measurement of the inhibitory effect of compounds on HCV protease activity was performed with the SensoLyte™ 620 HCV Protease Assay kit from AnaSpec, Inc. (San Jose, Calif.) under conditions described by the supplier using 1.2 nM HCV NS3-NS4A protease, which was obtained according to Taremi et al. (Protein Science, 1998, 7, 2143-2149). The compounds were tested at a variety of concentrations in assay buffer containing a final DMSO concentration of 5%. Reactions were allowed to proceed for 60 min at room temperature and fluorescence measurements were recorded with a Tecan Infinity Spectrofluorimeter. The IC50 values were determined from the percent inhibition versus concentration data using a sigmoidal non-linear regression analysis based on four parameters with Tecan Magellan software.

[2] = tested on: Huh-7 cells containing HCV Con1 subgenomic replicon (GS4.1 cells); experiment: HCV Replicon Assay (NS4A ELISA); type: cell-based; conditions: Hepatitis C virus, 72 hr, NS4A protein expression by ELISA
Experimental: General procedure: Huh-7 cells containing HCV Con1 subgenomic replicon (GS4.1 cells) were grown in Dulbecco's Modified Eagle Medium (DMEM) supplemented with 10% fetal bovine serum (FBS), 2 mM L-glutamine, 110 mg/L sodium pyruvate, 1X non-essential amino acids, 100 U/mL penicillin-streptomycin, and 0.5 mg/mL G418 (Invitrogen). For dose-response testing, the cells were seeded in 96-well plates at 7.5×10^3 cells/well in a volume of 50 μL, and incubated at 37° C./5% CO2. Three hours after plating, 50 μL of ten 2-fold serial dilutions of compounds (highest concentration, 75 μM) were added, and cell cultures were incubated at 37° C./5% CO2 in the presence of 0.5% DMSO. Alternatively, compounds were tested at a single concentration of 15 μM. In all cases, Huh-7 cells lacking the HCV replicon served as negative control. The cells were incubated in the presence of compounds for 72 hr after which they were monitored for expression of the NS4A protein by enzyme-linked immunosorbent assay (ELISA). For this, the plates were then fixed for 1 min with acetone/methanol (1:1, v/v), washed twice with phosphate-buffered saline (PBS), 0.1% Tween 20, blocked for 1 hr at room temperature with TNE buffer containing 10% FBS and then incubated for 2 hr at 37° C. with the anti-NS4A mouse monoclonal antibody A-236 (ViroGen) diluted in the same buffer. After washing three times with PBS, 0.1% Tween 20, the cells were incubated 1 hr at 37° C. with anti-mouse immunoglobulin G-peroxidase conjugate in TNE, 10% FBS. After washing as described above, the reaction was developed with O-phenylenediamine (Zymed). The reaction was stopped after 30 min with 2 N H2SO4, and absorbance was read at 492 nm using Sunrise Tecan spectrophotometer. EC50 values were determined from the % inhibition versus concentration data using a sigmoidal non-linear regression analysis based on four parameters with Tecan Magellan software. When screening at a single concentration, the results were expressed as % inhibition at 15 μM.

In the case of `COc1ccc2c(OCC[C@@H]3NC(=O)N(C)CCCC/C=C\[C@@H]4C[C@@]4(C(=O)NS(=O)(=O)C4(C)CC4)NC3=O)cc(-c3nc(C(C)C)cs3)nc2c1Cl`, the CC50 [1] is reported as greater than 1000 µM, the IC50 (HCV NS3-NS4A protease) is reported as less than 0.1 µM and the EC50 [2] is reported as less than 0.1 µM.
`COc1ccc2c(OCC[C@@H]3NC(=O)N(C)CCCC/C=C\[C@@H]4C[C@@]4(C(=O)NS(=O)(=O)C4(C)CC4)NC3=O)cc(-c3nc(C(C)C)cs3)nc2c1` gave a CC50 [1] of 10 to 1000 µM, an IC50 (HCV NS3-NS4A protease) of less than 0.1 µM and an EC50 [2] of less than 0.1 µM.
In the case of `COc1ccc2c(OCC[C@@H]3NC(=O)N(C)CCCC/C=C\[C@@H]4C[C@@]4(C(=O)NS(=O)(=O)C4(C)CC4)NC3=O)cc(-n3ccc(C(F)(F)F)n3)nc2c1Cl`, the CC50 [1] is reported as greater than 1000 µM, the IC50 (HCV NS3-NS4A protease) is reported as less than 0.1 µM and the EC50 [2] is reported as less than 0.1 µM.
`CCCn1ccc(-c2cc(OCC[C@@H]3NC(=O)N(C)CCCC/C=C\[C@@H]4C[C@@]4(C(=O)NS(=O)(=O)C4(C)CC4)NC3=O)c3ccc(OC)c(C)c3n2)n1` showed a CC50 [1] greater than 1000 µM, an IC50 (HCV NS3-NS4A protease) of less than 0.1 µM and an EC50 [2] of 0.1 to 10 µM.
With `COc1ccc2c(OCCC3NC(=O)N(C)CCCC/C=C\C4CC4(C(=O)NS(=O)(=O)C4(C#N)CC4)NC3=O)cc(-c3nc(C(C)C)cs3)nc2c1Cl` (stereo not drawn) the CC50 [1] was greater than 1000 µM, the IC50 (HCV NS3-NS4A protease) was less than 0.1 µM and the EC50 [2] was 0.1 to 10 µM.
With `CC(=O)OCC[C@@H]1NC(=O)N(C)CCCC/C=C\[C@@H]2C[C@@]2(C(=O)NS(=O)(=O)C2CC2)NC1=O` the CC50 [1] was greater than 1000 µM, the IC50 (HCV NS3-NS4A protease) was 0.1 to 10 µM and the EC50 [2] was greater than 1000 µM.
In the case of `COc1ccc2c(OCC[C@@H]3NC(=O)N(C)CCCC/C=C\[C@@H]4C[C@@]4(C(=O)OS(=O)(=O)C4(C)CC4)NC3=O)cc(-n3ccc(C(F)(F)F)n3)nc2c1C`, the CC50 [1] is reported as greater than 1000 µM, the IC50 (HCV NS3-NS4A protease) is reported as less than 0.1 µM and the EC50 [2] is reported as less than 0.1 µM.
In the case of `COc1ccc2c(OCCC3NC(=O)N(C)CCCC/C=C\C4CC4(C(=O)NS(=O)(=O)C4(C)CC4)NC3=O)cc(-c3nc(C(C)C)cs3)nc2c1Br` (stereo not drawn), the CC50 [1] is reported as greater than 1000 µM, the IC50 (HCV NS3-NS4A protease) is reported as less than 0.1 µM and the EC50 [2] is reported as less than 0.1 µM.
With `COc1ccc2c(OCC[C@@H]3NC(=O)N(C)CCCC/C=C\[C@@H]4C[C@@]4(C(=O)NS(=O)(=O)C4(C)CC4)NC3=O)cc(-n3ccc(C(C)C)n3)nc2c1C` the CC50 [1] was greater than 1000 µM, the IC50 (HCV NS3-NS4A protease) was less than 0.1 µM and the EC50 [2] was less than 0.1 µM.
In the case of `COc1ccc2c(OCC[C@@H]3NC(=O)N(C)CCCC/C=C\[C@@H]4C[C@@]4(C(=O)NS(=O)(=O)C4(I)CC4)NC3=O)cc(-c3nc(C(C)C)cs3)nc2c1C`, the CC50 [1] is reported as greater than 1000 µM, the IC50 (HCV NS3-NS4A protease) is reported as less than 0.1 µM and the EC50 [2] is reported as 0.1 to 10 µM.
For `COc1ccc2c(OCCC3NC(=O)N(C)CCCC/C=C\C4CC4(C(=O)NS(=O)(=O)N(C)C)NC3=O)cc(-c3nc(C(C)C)cs3)nc2c1Cl` (stereo not drawn), the CC50 [1] was greater than 1000 µM, the IC50 (HCV NS3-NS4A protease) was less than 0.1 µM and the EC50 [2] was less than 0.1 µM.
For `COc1ccc2c(OCC[C@@H]3NC(=O)N(C)CCCC/C=C\[C@@H]4C[C@@]4(C(=O)NS(=O)(=O)C4(C)CC4)NC3=O)cc(-n3ccc(C(C)C)n3)nc2c1Cl`, the CC50 [1] was greater than 1000 µM, the IC50 (HCV NS3-NS4A protease) was less than 0.1 µM and the EC50 [2] was less than 0.1 µM.
In the case of `C#CC1(S(=O)(=O)NC(=O)C23CC2/C=C\CCCCN(C)C(=O)NC(CCOc2cc(-c4nc(C(C)C)cs4)nc4c(Cl)c(OC)ccc24)C(=O)N3)CC1` (stereo not drawn), the CC50 [1] is reported as greater than 1000 µM, the IC50 (HCV NS3-NS4A protease) is reported as less than 0.1 µM and the EC50 [2] is reported as less than 0.1 µM.
For `COc1ccc2c(OCC[C@@H]3NC(=O)N(C)CCCC/C=C\[C@@H]4C[C@@]4(C(=O)NS(=O)(=O)C4(CC5CC5)CC4)NC3=O)cc(-c3nc(C(C)C)cs3)nc2c1Cl`, the CC50 [1] was greater than 1000 µM, the IC50 (HCV NS3-NS4A protease) was less than 0.1 µM and the EC50 [2] was 0.1 to 10 µM.
For `COc1ccc2c(OCC[C@@H]3NC(=O)N(C)CCCC/C=C\[C@@H]4C[C@@]4(C(=O)S(=O)(=O)C4(C)CC4)NC3=O)cc(-c3ccn(Cc4ccccc4)n3)nc2c1C`, the CC50 [1] was greater than 1000 µM, the IC50 (HCV NS3-NS4A protease) was less than 0.1 µM and the EC50 [2] was 0.1 to 10 µM.
`COc1ccc2c(OCC[C@@H]3NC(=O)N(C)CCCC/C=C\[C@@H]4C[C@@]4(C(=O)NS(=O)(=O)C4(C)CC4)NC3=O)cc(-c3cc(C(F)(F)F)nn3C)nc2c1C` gave a CC50 [1] greater than 1000 µM, an IC50 (HCV NS3-NS4A protease) of less than 0.1 µM and an EC50 [2] of 0.1 to 10 µM.
`COc1ccc2c(OCC[C@@H]3NC(=O)N(C)CCCC/C=C\[C@@H]4C[C@@]4(C(=O)NS(=O)(=O)C4(C)CC4)NC3=O)cc(-c3csc(NC(C)C)n3)nc2c1` showed a CC50 [1] greater than 1000 µM, an IC50 (HCV NS3-NS4A protease) of less than 0.1 µM and an EC50 [2] of 0.1 to 10 µM.
